From patent publication US20250120932A1, “PHARMACEUTICAL COMPOSITION” (NEUROPRO THERAPEUTICS, INC., priority 2021, published 2025)

Test: in vitro
Conditions: human, Caco-2, pH 7.4, % Solution Recovery
Description: Caco-2 cells purchased from ATCC were seeded onto […] (PET) in 96-well Corning Insert plates at 1×10^5 cells/cm^2, and refreshed medium every 4˜5 days until to the 21st to 28th day for confluent cell monolayer formation.
The transport buffer in the study was HBSS with 10.0 mM HEPES at pH 7.40±0.05. Test compound was tested at 2.00 μM bi-directionally in duplicate. Digoxin was tested at 10.0 μM bi-directionally in duplicate, while nadolol and metoprolol were tested at 2.00 μM in A to B direction in duplicate. Final DMSO concentration was adjusted to less than 1%. The plate was incubated for 2 hours in CO2 incubator at 37±1° C., with 5% CO2 at saturated humidity without shaking. And all samples after mixed with acetonitrile containing internal standard were centrifuged at 3200×g for 10 min. For nadolol and metoprolol, 200 μL supernatant solution was diluted with 600 μL ultra-pure water for LC-MS/MS analysis. For digoxin and test compounds, 200 μL supernatant solution was diluted with 200 μL ultra-pure water for LC-MS/MS analysis. Concentrations of test and control compounds in starting solution, donor solution, and receiver solution were quantified by LC-MS/MS methodologies, using peak area ratio of analyte/internal standard. After transport assay, lucifer yellow rejection assay was applied to determine the Caco-2 cell monolayer integrity.
The apparent permeability coefficient Papp (cm/s) was calculated using the equation: […]
Where dCp/dt is the cumulative concentration of compound in the receiver chamber as a function of time (μM/s); Vr is the solution volume in the receiver chamber (0.075 mL on the apical side, 0.25 mL on the basolateral side); A is the surface area for the transport, i.e. 0.0804 cm^2 for the area of the monolayer; Co is the initial concentration in the donor chamber (μM). The efflux ratio was calculated using the equation: […]
Percent recovery was calculated using the equation: […]
Where Vd is the volume in the donor chambers (0.075 mL on the apical side, 0.25 mL on the basolateral side); Ca and Cr are the final concentrations of transport compound in donor and receiver chambers, respectively.

recovery at 2 h, 2 μM: < 50%
SMILES: CCCCNc1cc(C(=O)N(Cc2ccccc2)Cc2ccccc2)cc(S(N)(=O)=O)c1Oc1ccccc1 [Bumetanide Dibenzylamide, N, N-dibenzyl 3-aminosulfonyl-5-butylamino-4-phenoxybenzamide]
